Here are results for six molecules from ChEMBL document CHEMBL3046463, “Antihepatotoxic, nephroprotective, and antioxidant activities of phenolic compounds from Satureja macrostema leaves against carbon tetrachloride-induced hepatic damage in mice” (Med Chem Res, 2013).

≈ marks a conversion by molar mass, not a printed value.

Common to all, as to assay type: functional
In experiment [1] the test system is Mus musculus. Briefly: Nephroprotective activity in CD1 Mus musculus (mouse) assessed as reduction of CCl4-induced plasma creatinine level at 20 mg/kg, po administered 30 min before and 3 hr after CCl4 challenge measured 48 hr post CCl4 challenge (reference value: 1.2 +/- 0.006 mg/dl).
The test system of experiment [2] is Mus musculus. Briefly: Nephroprotective activity in CD1 Mus musculus (mouse) assessed as reduction of CCl4-induced plasma urea level at 20 mg/kg, po administered 30 min before and 3 hr after CCl4 challenge measured 48 hr post CCl4 challenge (reference value: 61.56 +/- 3.46 mg/dl).
Experiment [3] in a line: Antioxidant activity assessed as inhibition of H2O2/Fe2+-induced radical generation.
For experiment [4], the system named is Radical scavenging activity. Briefly: Antioxidant activity assessed as DPPH free radical scavenging activity. In general terms: Loss of DPPH colour is used to gauge radical scavenging.
In experiment [5] the test system is Mus musculus. The experiment is described as follows: Hepatoprotective activity in CD1 Mus musculus (mouse) intoxicated with CCl4 assessed as increase in total protein level in serum at 20 mg/kg, po administered 30 min before and 3 hr after CCl4 challenge measured 48 hr post CCl4 challenge (reference value: 61.80 +/- 5.48 g/l).
The subject of experiment [6] is Mus musculus. The experiment is described as follows: Hepatoprotective activity in CD1 Mus musculus (mouse) assessed as reduction of CCl4-induced total cholesterol level in serum at 20 mg/kg, po administered 30 min before and 3 hr after CCl4 challenge measured 48 hr post CCl4 challenge (reference value: 172.57 +/- 4.36 md/dl).
Experiment [7] deals with Mus musculus. The experiment is described as follows: Hepatoprotective activity in CD1 Mus musculus (mouse) assessed as reduction of CCl4-induced serum alkaline phosphatase level at 20 mg/kg, po administered 30 min before and 3 hr after CCl4 challenge measured 48 hr post CCl4 challenge (reference value: 239.1 +/- 5.98 IU/l).
Experiment [8] has as its system Mus musculus. Briefly: Hepatoprotective activity in CD1 Mus musculus (mouse) assessed as reduction of CCl4-induced serum aspartate aminotransferase level at 20 mg/kg, po administered 30 min before and 3 hr after CCl4 challenge measured 48 hr post CCl4 challenge (reference value: 487.3 +/- 6.21 IU/l).
For experiment [9], the system named is Mus musculus. Briefly: Hepatoprotective activity in CD1 Mus musculus (mouse) assessed as reduction of CCl4-induced serum alanine aminotransferase level at 20 mg/kg, po administered 30 min before and 3 hr after CCl4 challenge measured 48 hr post CCl4 challenge (reference value: 296 +/- 7.93 IU/l).
The nature of experiment [10]: Antioxidant activity assessed as superoxide radical scavenging activity.

`COc1c(O)cc([C@H]2Oc3cc(O)cc(O)c3C(=O)[C@@H]2O[C@@H]2O[C@H](C)[C@@H](O)[C@H](O)[C@@H]2O[C@@H]2O[C@H](C)[C@@H](O)[C@H](O)[C@@H]2O)cc1O`: the Activity in the experiment with Mus musculus [1] was found to be 0.74 mg/dL; with Mus musculus [2] it was 49.43 mg/dL; in the experiment on Mus musculus [5], 74.76 g/L; in the experiment on Mus musculus [6], 129.31 mg/dL; with Mus musculus [7], 128.3 IU/L; with Mus musculus [8], 161.6 IU/L. Further, the Activity in the experiment with Mus musculus [9] was 115.1 IU/L. Moreover, the concentration for half-maximal inhibition (IC50) (commonly the midpoint of a concentration-inhibition curve) in [3] turned out to be 22.4 µg/mL (≈ 35.8 µM); in experiment [4], 17.5 µg/mL (≈ 27.9 µM); in experiment [10], 30.4 µg/mL (≈ 48.5 µM).

As for `O=c1c(O)c(-c2ccc(O)c(O)c2)oc2cc(O)cc(O)c12` [QUERCETIN], the IC50 in [3] came out at 14.6 µg/mL (≈ 48.3 µM); in experiment [4], 8.2 µg/mL (≈ 27.1 µM); in experiment [10] it was 20.1 µg/mL (≈ 66.5 µM).

Turning to `COc1ccc(-c2oc3cc(O[C@@H]4O[C@H](CO)[C@@H](O)[C@H](O[C@@H]5O[C@@H](C)[C@H](O)[C@@H](O)[C@H]5O)[C@H]4O)c(OC)c(O)c3c(=O)c2OC)cc1`, the Activity is 0.67 mg/dL with Mus musculus [1]; 44.78 mg/dL in the experiment with Mus musculus [2]; 68.23 g/L with Mus musculus [5]; 143.28 mg/dL in the experiment on Mus musculus [6]; 156.5 IU/L in the experiment on Mus musculus [7]; 219.4 IU/L in the experiment on Mus musculus [8]. Moreover, the Activity with Mus musculus [9] is 152.4 IU/L. The IC50 in [3] was determined as 36.42 µg/mL (≈ 55.8 µM); in experiment [4], 24.8 µg/mL (≈ 38 µM); in [10], 43.12 µg/mL (≈ 66.1 µM).

For `COc1cc(O)cc2c1C(=O)[C@H](O[C@@H]1O[C@H](C)[C@@H](O)[C@H](O)[C@@H]1O)[C@@H](c1cc(O)c(OC)c(O)c1)O2`, the Activity amounted to 0.71 mg/dL with Mus musculus [1]; 47.26 mg/dL with Mus musculus [2]; 71.57 g/L in the experiment with Mus musculus [5]; 136.8 mg/dL in the experiment on Mus musculus [6]; 137.5 IU/L in the experiment with Mus musculus [7]; 189.4 IU/L with Mus musculus [8]. For the same molecule, the Activity with Mus musculus [9] was 124.2 IU/L. Besides, the figures for the IC50 in experiment [3], in experiment [4] and in [10] were 26.7 µg/mL (≈ 54 µM), 11.6 µg/mL (≈ 23.5 µM) and 35.2 µg/mL (≈ 71.2 µM), respectively.

Regarding `C[C@H]1O[C@@H](Oc2cc(O)c3c(c2)O[C@H](c2cc(O)c(O)c(O)c2)CC3=O)[C@@H](O)[C@@H](O)[C@@H]1O`, the Activity turned out to be 0.76 mg/dL in the experiment with Mus musculus [1]; 51.1 mg/dL in the experiment with Mus musculus [2]; 76.1 g/L in the experiment on Mus musculus [5]; 124.34 mg/dL in the experiment with Mus musculus [6]; 118.1 IU/L with Mus musculus [7]; 145.7 IU/L in the experiment with Mus musculus [8]. Moreover, the Activity in the experiment on Mus musculus [9] amounted to 103.4 IU/L. Besides, the IC50 came out at 18.2 µg/mL (≈ 40.4 µM) in experiment [3], 9.3 µg/mL (≈ 20.6 µM) in [4] and 25.8 µg/mL (≈ 57.3 µM) in experiment [10].

As for `COc1ccc([C@@H]2CC(=O)c3c(OC)cc(O[C@@H]4O[C@H](C)[C@@H](O)[C@H](O)[C@@H]4O)cc3O2)cc1O`, the Activity with Mus musculus [1] was 0.69 mg/dL; in the experiment on Mus musculus [2], 46.62 mg/dL; in the experiment with Mus musculus [5], 70.24 g/L; with Mus musculus [6], 140.13 mg/dL; in the experiment on Mus musculus [7] it was 149.6 IU/L; in the experiment on Mus musculus [8] it was 200.6 IU/L. In addition, the Activity in the experiment on Mus musculus [9] stood at 143.6 IU/L. In addition, the IC50 in [3] amounted to 32.7 µg/mL (≈ 70.7 µM); in experiment [4], 21.4 µg/mL (≈ 46.3 µM); in experiment [10], 39.76 µg/mL (≈ 86 µM).
